Experimental findings from article PMC11625940, “An Improved Test Method for Assaying the Inhibition of Bioflavonoids on Xanthine Oxidase Activity in vitro” (ChemistryOpen, 2024) are described below.

Test [1] concerns the target T1, Xanthine oxidase (XOD).
T1 construct: gene XDH; described in the introduction as a 290 kDa homodimer of mammals; the high specific activity could also fit a microbial enzyme
Nature of the test: UV assay of uric acid formation at […] nm, test method C (inhibitor added to running reaction after […] min, superoxide present). To be noted: xanthine substrate, sodium pyrophosphate buffer pH 7.5, 37 °C, unreliable: compound may be oxidised to myricetin by superoxide, no IC50 reached in test methods A and B. The class given is biochemical.

In test [2] the target is T1, Xanthine oxidase (XOD). Nature of the test: UV assay of uric acid formation at […] nm, test method A (inhibitor preincubated with enzyme, started by xanthine). Format: biochemical. To be noted: xanthine substrate, sodium pyrophosphate buffer pH 7.5, 37 °C, other methods (B; C, inhibitor added to the running reaction with superoxide) also printed in the row, read-out: IC50 ^[a]/μmol L^-1.

SMILES strings stand for the structures. pIC50: −log10 of the molar value.

Regarding `O=C1c2c(O)cc(O)cc2O[C@H](c2cc(O)c(O)c(O)c2)[C@H]1O` [Dihydromyricetin], the “IC50 ^[c]/μmol L^-1” value on Xanthine oxidase (XOD) [1] amounted to 20.96 µM. Turning to `O=c1c(O)c(-c2cc(O)c(O)c(O)c2)oc2cc(O)cc(O)c12` [Myricetin], the pIC50 at Xanthine oxidase (XOD) [2] is 5.30. The same measure, in the same setting: the result for `O=c1cc(-c2ccc(O)c(O)c2)oc2cc(O)cc(O)c12` [Luteolin] reads 5.36.
